# Reference: patent publication US20050222200A1, “AMIDE DERIVATIVES AS ION CHANNEL LIGANDS AND PHARMACEUTICAL COMPOSITIONS AND METHODS OF USING THE SAME” (Renovis, Inc., priority 2003, published 2005)
# Molecular target: T1, VR1 (Homo sapiens, UniProt Q8NER1)
# T1 construct: expressed in transfected cells; host or cells: 293 cells ("293 neurons" [sic])
# Assay: High throughput calcium imaging assay of VR1 antagonists (Fura2, Flex Station, 96 well)
# Type: cell-based
# Settings: Table 1 activity class
# T1 sequence (Q8NER1 whole entry, species assumed): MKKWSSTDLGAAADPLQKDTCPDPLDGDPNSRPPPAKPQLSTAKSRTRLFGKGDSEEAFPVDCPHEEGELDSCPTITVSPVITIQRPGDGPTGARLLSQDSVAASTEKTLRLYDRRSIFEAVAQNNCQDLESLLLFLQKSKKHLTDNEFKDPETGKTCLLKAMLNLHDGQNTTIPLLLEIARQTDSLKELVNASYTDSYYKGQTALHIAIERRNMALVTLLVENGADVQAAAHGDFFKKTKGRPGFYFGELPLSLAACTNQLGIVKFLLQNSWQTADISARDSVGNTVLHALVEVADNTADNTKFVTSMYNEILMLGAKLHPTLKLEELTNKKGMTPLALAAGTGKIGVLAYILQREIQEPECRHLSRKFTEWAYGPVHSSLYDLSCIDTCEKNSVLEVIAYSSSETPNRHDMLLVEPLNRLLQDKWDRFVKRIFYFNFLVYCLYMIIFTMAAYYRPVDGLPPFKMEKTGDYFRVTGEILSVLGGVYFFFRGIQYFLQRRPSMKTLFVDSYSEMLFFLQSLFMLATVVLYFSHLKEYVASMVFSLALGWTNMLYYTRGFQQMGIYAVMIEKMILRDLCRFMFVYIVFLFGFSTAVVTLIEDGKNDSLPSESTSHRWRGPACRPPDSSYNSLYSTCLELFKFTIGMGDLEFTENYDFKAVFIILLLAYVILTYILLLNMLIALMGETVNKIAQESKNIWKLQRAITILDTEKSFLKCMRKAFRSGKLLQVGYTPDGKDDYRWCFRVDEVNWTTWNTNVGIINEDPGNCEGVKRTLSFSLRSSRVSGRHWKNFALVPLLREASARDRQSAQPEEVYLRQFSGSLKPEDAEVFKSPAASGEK
row,Structure (SMILES),inhibition of calcium ion influx induced by capsaicin stimulation
1,CCC(C)(C)NC(=O)c1ccc(/C=C/C(C)C)cc1 [Compound 164],+ (compound exhibited 0-25% inhibition of calcium ion influx induced by capsaicin stimulation)
2,CC(C)/C=C/c1ccc(C(=O)Nc2ccc(Cl)nc2)cc1 [Compound 166],+ (compound exhibited 0-25% inhibition of calcium ion influx induced by capsaicin stimulation)
3,CC(C)/C=C/c1ccc(C(=O)Nc2ccnc(Cl)c2)cc1 [Compound 168],+ (compound exhibited 0-25% inhibition of calcium ion influx induced by capsaicin stimulation)
4,CC(C)/C=C/c1ccc(C(=O)Nc2ccc3c(c2)OCO3)cc1 [Compound 169],+++ (compound exhibited 50-75% inhibition of calcium ion influx induced by capsaicin stimulation)
5,CC(C)/C=C/c1ccc(C(=O)Nc2ccc3ncccc3c2)cc1 [Compound 171],++ (compound exhibited 25-50% inhibition of calcium ion influx induced by capsaicin stimulation)
6,CCn1c2ccccc2c2cc(NC(=O)c3ccc(/C=C/C(C)C)cc3)ccc21 [Compound 172],++ (compound exhibited 25-50% inhibition of calcium ion influx induced by capsaicin stimulation)
7,CC(C)/C=C/c1ccc(C(=O)Nc2ccc3c(c2)Cc2ccccc2-3)cc1 [Compound 175],+ (compound exhibited 0-25% inhibition of calcium ion influx induced by capsaicin stimulation)
8,CCC/C=C/c1ccc(C(=O)NC(C)C)cc1 [Compound 179],+ (compound exhibited 0-25% inhibition of calcium ion influx induced by capsaicin stimulation)
9,CCC/C=C/c1ccc(C(=O)NC2CCCCC2)cc1 [Compound 181],+ (compound exhibited 0-25% inhibition of calcium ion influx induced by capsaicin stimulation)
10,CCC/C=C/c1ccc(C(=O)NCc2ccco2)cc1 [Compound 183],+ (compound exhibited 0-25% inhibition of calcium ion influx induced by capsaicin stimulation)
11,CCC/C=C/c1ccc(C(=O)NCc2ccc(C(C)C)cc2)cc1 [Compound 185],+ (compound exhibited 0-25% inhibition of calcium ion influx induced by capsaicin stimulation)
12,CCC/C=C/c1ccc(C(=O)NCCCn2ccnc2)cc1 [Compound 190],+ (compound exhibited 0-25% inhibition of calcium ion influx induced by capsaicin stimulation)
13,CCC/C=C/c1ccc(C(=O)NC(c2ccccc2)c2ccccc2)cc1 [Compound 191],+ (compound exhibited 0-25% inhibition of calcium ion influx induced by capsaicin stimulation)
14,CCC/C=C/c1ccc(C(=O)NCCN2CCCC2)cc1 [Compound 192],+ (compound exhibited 0-25% inhibition of calcium ion influx induced by capsaicin stimulation)
15,CCC/C=C/c1ccc(C(=O)NCCCCC)cc1 [Compound 193],++ (compound exhibited 25-50% inhibition of calcium ion influx induced by capsaicin stimulation)
16,CCC/C=C/c1ccc(C(=O)NCCc2ccccc2Cl)cc1 [Compound 194],+ (compound exhibited 0-25% inhibition of calcium ion influx induced by capsaicin stimulation)
17,CCC/C=C/c1ccc(C(=O)NCc2ccccc2)cc1 [Compound 196],+ (compound exhibited 0-25% inhibition of calcium ion influx induced by capsaicin stimulation)
18,CCC/C=C/c1ccc(C(=O)NCCCC)cc1 [Compound 197],+ (compound exhibited 0-25% inhibition of calcium ion influx induced by capsaicin stimulation)
19,CCC/C=C/c1ccc(C(=O)NCCC)cc1 [Compound 198],++ (compound exhibited 25-50% inhibition of calcium ion influx induced by capsaicin stimulation)
20,CCC/C=C/c1ccc(C(=O)Nc2ccncc2)cc1 [Compound 202],+ (compound exhibited 0-25% inhibition of calcium ion influx induced by capsaicin stimulation)
21,CCC/C=C/c1ccc(C(=O)Nc2cccnc2)cc1 [Compound 203],+ (compound exhibited 0-25% inhibition of calcium ion influx induced by capsaicin stimulation)

row,Structure (SMILES),inhibition of calcium ion influx induced by capsaicin stimulation
1,CCC/C=C/c1ccc(C(=O)Nc2cc[nH]n2)cc1 [Compound 204],+ (compound exhibited 0-25% inhibition of calcium ion influx induced by capsaicin stimulation)
2,CCC/C=C/c1ccc(C(=O)Nc2nccs2)cc1 [Compound 205],+ (compound exhibited 0-25% inhibition of calcium ion influx induced by capsaicin stimulation)
3,CCC/C=C/c1ccc(C(=O)NCC2CCCO2)cc1 (centres unmarked) [Compound 206],+ (compound exhibited 0-25% inhibition of calcium ion influx induced by capsaicin stimulation)
4,CCC/C=C/c1ccc(C(=O)NC2CCC(Cc3ccccc3)CC2)cc1 (centres unmarked) [Compound 207],++ (compound exhibited 25-50% inhibition of calcium ion influx induced by capsaicin stimulation)
5,CCC/C=C/c1ccc(C(=O)NCc2ccc3c(c2)OCO3)cc1 [Compound 208],+ (compound exhibited 0-25% inhibition of calcium ion influx induced by capsaicin stimulation)
6,CCC/C=C/c1ccc(C(=O)NCCN2CCOCC2)cc1 [Compound 209],+ (compound exhibited 0-25% inhibition of calcium ion influx induced by capsaicin stimulation)
7,CCC/C=C/c1ccc(C(=O)NCc2cccc(C(F)(F)F)c2)cc1 [Compound 211],+ (compound exhibited 0-25% inhibition of calcium ion influx induced by capsaicin stimulation)
8,CCC/C=C/c1ccc(C(=O)NCc2cc(OC)c(OC)c(OC)c2)cc1 [Compound 213],+ (compound exhibited 0-25% inhibition of calcium ion influx induced by capsaicin stimulation)
9,CCC/C=C/c1ccc(C(=O)NC2CCCC2)cc1 [Compound 214],+ (compound exhibited 0-25% inhibition of calcium ion influx induced by capsaicin stimulation)
10,CCC/C=C/c1ccc(C(=O)NCc2ccccn2)cc1 [Compound 216],+ (compound exhibited 0-25% inhibition of calcium ion influx induced by capsaicin stimulation)
11,CCC/C=C/c1ccc(C(=O)NCCc2ccc(OC)c(OC)c2)cc1 [Compound 217],+ (compound exhibited 0-25% inhibition of calcium ion influx induced by capsaicin stimulation)
12,CCC/C=C/c1ccc(C(=O)NC(C)(C)CO)cc1 [Compound 218],+ (compound exhibited 0-25% inhibition of calcium ion influx induced by capsaicin stimulation)
13,CCC/C=C/c1ccc(C(=O)NC(C)(C)c2ccccc2)cc1 [Compound 219],+ (compound exhibited 0-25% inhibition of calcium ion influx induced by capsaicin stimulation)
14,CCC/C=C/c1ccc(C(=O)NCC)cc1 [Compound 223],+++ (compound exhibited 50-75% inhibition of calcium ion influx induced by capsaicin stimulation)
15,CCC/C=C/c1ccc(C(=O)NCc2cccs2)cc1 [Compound 224],++ (compound exhibited 25-50% inhibition of calcium ion influx induced by capsaicin stimulation)
16,CCC/C=C/c1ccc(C(=O)Nc2ccccc2C#N)cc1 [Compound 225],+ (compound exhibited 0-25% inhibition of calcium ion influx induced by capsaicin stimulation)
17,CCC/C=C/c1ccc(C(=O)Nc2cccc(N(C)C)c2)cc1 [Compound 226],+++ (compound exhibited 50-75% inhibition of calcium ion influx induced by capsaicin stimulation)
18,CCC/C=C/c1ccc(C(=O)Nc2ccc(N(CC)CC)cc2)cc1 [Compound 227],+ (compound exhibited 0-25% inhibition of calcium ion influx induced by capsaicin stimulation)
19,CCC/C=C/c1ccc(C(=O)Nc2cccc(Cl)c2)cc1 [Compound 228],+++ (compound exhibited 50-75% inhibition of calcium ion influx induced by capsaicin stimulation)
20,CCC/C=C/c1ccc(C(=O)Nc2ccccc2CCC)cc1 [Compound 230],+ (compound exhibited 0-25% inhibition of calcium ion influx induced by capsaicin stimulation)

# Molecular target: VR1 (Rattus norvegicus, UniProt O35433)
# Sequence (O35433 whole entry): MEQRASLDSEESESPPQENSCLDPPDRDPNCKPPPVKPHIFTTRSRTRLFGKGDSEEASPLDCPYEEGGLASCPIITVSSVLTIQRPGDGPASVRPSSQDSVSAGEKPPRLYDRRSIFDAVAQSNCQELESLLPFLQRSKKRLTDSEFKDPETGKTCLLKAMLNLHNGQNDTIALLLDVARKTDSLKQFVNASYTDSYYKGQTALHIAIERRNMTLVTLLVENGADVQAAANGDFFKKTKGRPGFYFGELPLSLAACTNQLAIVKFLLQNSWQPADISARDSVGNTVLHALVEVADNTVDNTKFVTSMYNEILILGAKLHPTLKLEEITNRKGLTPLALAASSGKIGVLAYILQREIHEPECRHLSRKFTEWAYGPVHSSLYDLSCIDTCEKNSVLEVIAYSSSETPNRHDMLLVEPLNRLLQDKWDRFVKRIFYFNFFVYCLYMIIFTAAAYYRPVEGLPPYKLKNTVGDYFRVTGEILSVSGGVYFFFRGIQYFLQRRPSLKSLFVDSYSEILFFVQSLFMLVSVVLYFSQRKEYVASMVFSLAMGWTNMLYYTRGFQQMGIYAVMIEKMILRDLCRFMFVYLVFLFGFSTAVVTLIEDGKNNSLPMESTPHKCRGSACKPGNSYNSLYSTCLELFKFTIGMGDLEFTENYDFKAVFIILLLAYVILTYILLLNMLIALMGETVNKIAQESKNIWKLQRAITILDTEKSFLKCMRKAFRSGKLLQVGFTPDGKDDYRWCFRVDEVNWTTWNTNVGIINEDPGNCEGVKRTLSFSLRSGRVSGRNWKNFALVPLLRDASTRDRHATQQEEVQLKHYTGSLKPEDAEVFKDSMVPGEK
# Assay: Calcium imaging assay: inhibition of capsaicin induced calcium influx in DRG neurons (Fura2, microscope)
# Type: cell-based
# Parameters: endogenous in cells; host or cells: DRG neurons
# Settings: capsaicin stimulation; class symbols per legend
# Method: VR1 protein is a heat-gated cation channel that […] resulting in neuronal membrane depolarization and elevated intracellular calcium levels. Therefore the functional activity of compounds at the VR1 receptor may be determined by measuring changes in intracellular calcium levels in neurons such as the dorsal root ganglion.
# DRG neurons were grown on PDL coated 96-well black-walled plates, in the presence of DMEM medium containing 5% Penstrep, 5% Glutamax, 200 μg/ml hygromycin, 5 μg/ml blasticide and 10% heat inactivated FBS. Prior to assay, cells were loaded with 5 μg/ml Fura2 in normal saline solution at 37° C for 40 minutes. Cells were then washed with normal saline to remove dye before commencement of the experiment.
# The plated neurons were transferred into a chamber on the stage of a Nikon eclipse TE300 microscope after which neurons were allowed to attain a stable fluorescence for about 10 minutes before beginning the experiment. The assay consists of two stages, a pretreatment phase followed by a treatment phase. First, a solution of the test compound was added from a multivalve perfusion system to the cells for 1 minute (pretreatment). Immediately following, capsaicin (250 nM) was added in the presence of the test compound (treatment) for a specific period between 20 and 60 seconds.
# Fura2 was excited at […] to indicate relative calcium ion concentration. Changes in wavelength measurements were made throughout the course of the experiment. The fluorescence ratio was calculated by dividing fluorescence measured at 340 nm by that at 380 nM. Data was collected using Intelligent Imaging’s Slidebook software. All compounds that inhibited capsaicin induced calcium influx greater than 75% were considered positives.
# Fluorescence reflecting calcium ion influx is reduced.
row,Structure (SMILES),inhibition of calcium ion influx induced by capsaicin stimulation
1,CCC/C=C/c1ccc(C(=O)Nc2ccccc2Cl)cc1 [Compound 233],+ (compound exhibited 0-25% inhibition of calcium ion influx induced by capsaicin stimulation)
2,CCC/C=C/c1ccc(C(=O)Nc2cc(C)ccn2)cc1 [Compound 234],+ (compound exhibited 0-25% inhibition of calcium ion influx induced by capsaicin stimulation)
3,CCC/C=C/c1ccc(C(=O)NCC(C)C)cc1 [Compound 236],+ (compound exhibited 0-25% inhibition of calcium ion influx induced by capsaicin stimulation)
